Entries after “also recorded” stand apart in the source; their conditions may differ.
Key:
[1] = biological target: T1, human androgen receptor (Homo sapiens, UniProt P10275); test: In vitro androgen receptor antagonistic activity, DHT-induced MMTV-luciferase reporter assay in AR/CHO#3 cells; assay type: cell-based; conditions: 0.3 nM DHT
T1 construct: expressed in transfected cells
T1 sequence (P10275 1-920): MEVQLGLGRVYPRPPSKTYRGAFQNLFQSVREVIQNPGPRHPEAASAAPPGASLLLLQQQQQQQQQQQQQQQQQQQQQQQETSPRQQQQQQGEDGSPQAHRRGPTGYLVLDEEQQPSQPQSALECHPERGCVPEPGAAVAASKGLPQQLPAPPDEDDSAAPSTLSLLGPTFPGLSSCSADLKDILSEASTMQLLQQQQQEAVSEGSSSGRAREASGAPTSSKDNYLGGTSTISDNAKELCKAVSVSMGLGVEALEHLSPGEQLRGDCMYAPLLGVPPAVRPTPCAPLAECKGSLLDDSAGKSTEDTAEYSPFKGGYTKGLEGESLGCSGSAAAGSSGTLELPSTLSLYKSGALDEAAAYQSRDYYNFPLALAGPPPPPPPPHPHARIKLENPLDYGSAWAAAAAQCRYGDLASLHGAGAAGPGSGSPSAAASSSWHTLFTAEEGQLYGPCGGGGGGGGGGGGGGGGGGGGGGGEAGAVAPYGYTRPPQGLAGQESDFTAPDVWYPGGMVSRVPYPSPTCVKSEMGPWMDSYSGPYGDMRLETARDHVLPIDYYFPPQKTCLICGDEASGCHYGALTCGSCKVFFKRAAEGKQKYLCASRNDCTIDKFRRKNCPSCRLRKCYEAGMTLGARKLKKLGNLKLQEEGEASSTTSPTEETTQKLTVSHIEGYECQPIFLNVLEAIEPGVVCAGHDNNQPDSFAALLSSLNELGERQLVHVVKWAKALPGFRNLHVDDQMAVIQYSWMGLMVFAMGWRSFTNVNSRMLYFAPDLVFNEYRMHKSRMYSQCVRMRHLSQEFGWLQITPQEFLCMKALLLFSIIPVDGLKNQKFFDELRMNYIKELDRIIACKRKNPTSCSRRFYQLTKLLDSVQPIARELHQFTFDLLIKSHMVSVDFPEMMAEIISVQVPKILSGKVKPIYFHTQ
Procedure: Chinese Hamster Ovary (CHO) Cells Stably Transfected with Human Androgen Receptor Gene and Mouse Mammary Tumor Virus (MMTV)-Luciferase Reporter Gene or SV40-Luciferase Gene: CHO cells were maintained in alpha-modified Eagle’s medium supplemented with 10% fetal bovine serum (FBS). The culture medium of neomycin-resistant clone cells was supplemented with 10% dextran-coated charcoal-stripped FBS (DCC-FBS) and […] of neomycin. The CHO cells were transfected at 40%–70% confluence in 10-cm petri dishes with a total of […] DNA (plasmide mammalian neow luciferase, (pMAMneoLUC)); Mouse mammary tumor virus (MMTV)-luciferase reporter plasmid and pSG5-hAR; human androgen receptor expression plasmid, or Simian vacuolating virus 40 (SV40-LUC); SV40-luciferase reporter plasmid containing neomycin resistant gene) by calcium phosphate mediated transfection. The stable transfected cells were selected in the culture medium supplemented with neomycin. The selected clone was designated as AR/CHO#3 (human AR gene and MMTV luciferase reporter gene integrated CHO cell) or SV/CHO#10 (SV-40-luciferase reporter gene integrated CHO cell), respectively.
The stable transfected AR/CHO#3 or SV/CHO#10 cells were plated onto 96-well luminoplates (Packard, Palo Alto, CA, USA) at a density of 2 × 10^4 cells/well, respectively.
Four to eight hours later, the medium was changed to a medium containing DMSO, 0.3 nM of DHT, or 0.3 nM of DHT, and the tested compound. At the end of incubation, the medium was removed and the cells were lysed with […] of lysis buffer (25 mM Tris–HCl (pH 7.8), 2 mM dithiothreitol, 2 mM 1,2-cyclo-hexanediamine-tetraacetic acid, 10% glycerol and 1% Triton X-100). Luciferase substrate (20 mM Tris–HCl (pH 7.8), 1.07 mM magnesium carbonate basic (MgCO3)4Mg(OH)2·5H2O, 2.67 mM MgSO4·7H2O, 0.1 mM ethylenediaminetetraacetic acid (EDTA), 33.3 mM dithiothreitol, 0.27 mM CoA, 0.47 mM luciferin, 0.53 mM ATP) was added, and luciferase activity was measured with a ML3000 luminometer (Dynatech Laboratories, El Paso, TX, UAS). AR antagonistic activities were calculated by the formula below: AR antagonistic activity (%) = 100 (I − X) / (I − B) (1) I: (luciferase activity of AR/CHO#3)/(luciferase activity of SV/CHO#10) in the presence of 0.3 nM of DHT, B: (luciferase activity of AR/CHO#3)/(luciferase activity of SV/CHO#10) in the presence of DMSO, X: (luciferase activity of AR/CHO#3)/(luciferase activity of SV/CHO#10) in the presence of 0.3 nM of DHT and the tested compound.
The concentration of compounds showing 50% AR antagonistic activity, or IC50 values, was obtained by nonlinear analysis using a statistical analysis system (SAS).

[2] = Acute toxicity (LD50) in rats; conditions: rat, in vivo, rats injected with increasing doses
Procedure: The LD50 was determined by using rats injected with different increasing doses of the synthesized compounds. The dose that killed 50% of the animals was calculated according to Austen and Brocklehurst (Table 4).

[3] = AR/CHO#3 cells normalised to SV/CHO#10
[4] = other: injected (kind of injection not stated)

| SMILES | IC50 [1, 3] [nM] | LD50 [2, 4] [mg/kg] | IC50, in vitro androgen receptor antagonistic activity [1, 3] | IC50, in vitro androgen receptor antagonistic activity ([1]; AR/CHO#3 cells normalised to SV/CHO#10, listed as compound 1) | LD50 ([2]; other: injected) [mg/kg] |
| --- | --- | --- | --- | --- | --- |
| N=c1c2cnn(-c3nc4c(ccc5ccccc54)s3)c2ncn1NC(=O)c1ccccc1 [Compound 11] | 39 | 325 |  |  |  |
| NNc1nc2c(ccc3ccccc32)s1 [Compound 1, 1-(naphtho[1,2-d]thiazol-2-yl)hydrazine] |  |  | Inactive | devoid from any activities; also recorded: devoid of any activity | 1160 |
| N#Cc1cnn(-c2nc3c(ccc4ccccc43)s2)c1N [Compound 2, 2-[3-Amino-4-cyanopyrazol-2-yl]naphthalino[1,2-d]thiazole] | 31 |  |  |  | 163 |
| N=c1sc(=S)[nH]c2c1cnn2-c1nc2c(ccc3ccccc32)s1 [Compound 6, 2-[6-Imino-3H-4-thiothiazino[4,5-c]pyrazol-2-yl]naphthalino[1,2-d]thiazole] | 44 |  |  |  | 258 |
| CCOC1SCC2NC(=O)c3cnn(-c4nc5c(ccc6ccccc65)s4)c3N21 (stereo not shown) [Compound 13, 2-[3-Ethoxy-5-dihydro-6H-7-oxo-[1,3]thiazolo[3,4-b]pyrimidino[4,5-c]pyrazol-2-yl]naphthalino[1,2-d]thiazole] | 29 |  |  |  | 443 |
| Nc1nc(=S)[nH]c2c1cnn2-c1nc2c(ccc3ccccc32)s1 [Compound 5, 2-[6-Amino-3H-4-thiopyrimidino[4,5-c]pyrazol-2-yl]naphthalino[1,2-d]thiazole] | 41 |  |  |  | 267 |
| CCOC1SCC(=O)N1c1c(C#N)cnn1-c1nc2c(ccc3ccccc32)s1 (stereo not shown) [Compound 12, 2-[3-(2-Ethoxy-4-oxo-5-dihydro-1,3-thiazol-3-yl)-4-cyanopyrazol-2-yl]-naphthalino[1,2-d]thiazole] | 91 |  |  |  | 234 |
| CCO/C=N\c1c(C#N)cnn1-c1nc2c(ccc3ccccc32)s1 [Compound 8, 2-[3-Ethylimidoformat-4-cyanopyrazol-2-yl]naphthalino[1,2-d]thiazole] | 77 |  |  |  | 236 |
| Nc1ncnc2c1cnn2-c1nc2c(ccc3ccccc32)s1 [Compound 3] | 37 | 175 |  |  |  |
| Cc1nc2c3cnn(-c4nc5c(ccc6ccccc65)s4)c3ncn2n1 [Compound 10, 2-[6-Methyl[1,2,4]triazolo[2,3-c]pyrimidino[6,5-c]pyrazol-2-yl]naphthalino[1,2-d]thiazole] | 23 |  |  |  | 316 |
| N#Cc1cnn(-c2nc3c(ccc4ccccc43)s2)c1/N=C\NN [Compound 9, 2-[3-Imidoformic hydrazido-4-cyanopyrazol-2-yl]naphthalino[1,2-d]thiazole] | 75 |  |  |  | 125 |
| Nc1n[nH]c2c1cnn2-c1nc2c(ccc3ccccc32)s1 [Compound 4] | 34 | 266 |  |  |  |
